Measurements: US20190224261A1, “LICORICE EXTRACT COMPOSITIONS AND METHOD OF USE” (Adbiotech, Co. Ltd, priority 2018, published 2019)

Assays:
[1] = DPPH radical scavenging activity
Description: The 2,2-diphenyl-1-picrylhydrazyl (DPPH) radical scavenging activity was evaluated as described (Gupta D et al., BMC Complement Altem Med, 2011; 11:13. doi: 10.1186/1472-6882-11-13) with modifications. In this assay, 0.2 mL of sample at different concentrations (1-1000 μg/mL) was added to 1.8 mL of DPPH solution (0.11 mM) in 80% ethanol. The mixture was then incubated for 30 minutes and at room temperature in the dark. The absorbance at 517 nm was then measured with ascorbic acid and butylhydroxytoluene (BHT) as reference antioxidants. A 0.2 mL of solvent extract dilution added to 1.8 mL of DPPH solution (0.11 mM) in 80% ethanol serve as the control. Two independent experiments were performed in triplicate. The percentage inhibition was calculated relative to the control using the equation, inhibition of DPPH radical (%)=(1−(Abssample/Abscontrol))×100.

STAT-3 phosphorylation = assay: Interleukin-6 induced STAT-3 phosphorylation; assay type: cell-based; settings: IL-6 induced STAT-3 phosphorylation; 100 uM

O=C1O[C@H]([C@@H](O)CO)C(O)=C1O [Ascorbic acid, ascorbic acid]
DPPH radical scavenging activity, % ([1]; 300 μM): 37.60 ± 0.47%

O=c1c(-c2ccc(O)cc2)coc2cc(O)cc(O)c12 [Genestain]
% Inhibition (STAT-3 phosphorylation): 96.25%

O=C(NC(Cc1cc(=O)[nH]c2ccccc12)C(=O)O)c1ccc(Cl)cc1 (stereo not drawn) [Rebamipde, rebamipide]
DPPH radical scavenging activity, % ([1]; 100 μg/mL): 0.93 ± 0.83%
